Here are results for three compounds from patent US8133913B2, “Substituted indeno [1,2-b]indole derivatives as novel inhibitors of protein kinase CK2 and their use as tumor therapeutic agents, cytostatics and diagnostic aids” (Heinrich-Heine Universitat Dusseldof, priority 2006, dated 2012).

What all share (test): Radiometric protein kinase assay (33PanQinase Activity Assay)
Holding throughout (assay type): biochemical

The target of one test is T1, PLK1 (Homo sapiens, UniProt P53350).
T1 construct: made in house; host or cells: Sf9 insect cells, baculovirus
The text has this:
(§1) AKTI1, ARK5, Aurora-A, Aurora-B, B-RAF-VE, CDK2/CycA, CDK4/CycD1, CK2-alpha1 (catalytic subunit of CK2), EGF-R, EPHB4, ERBB2, FAK, IGF1-R, SRC, VEGF-R2, VEGF-R3, FLT3, INS-R, MET, PDGFR-beta, PLK1, SAK, TIE2, COT.
(§2) All the protein kinases were expressed in Sf9 insect cells as human recombinant GST fusion proteins or His-tagged proteins by the baculovirus expression system. Kinases were purified by affinity chromatography either by GSH-agarose (Sigma) or Ni—NTH-agarose (Qiagen). The purity of the kinases was tested by SDS-PAGE/silver staining, and the identity of the kinases was verified by Western blot analysis with specific antibodies or mass spectroscopy.
(§3) A radiometric protein kinase assay (33PanQinase® Activity Assay) was used to measure the kinase activity for the 24 protein kinases. The kinase assays were carried out in 96-well FlashPlates™ from Perkin Elmer/NEN (Boston, Mass., USA) in a reaction volume of 50 μl. The reaction mixture was pipetted in 4 steps in the following sequence: • 20 μl of assay buffer • 5 μl of ATP solution (in H2O) • 5 μl of test compound (in 10% DMSO) • 10 μl of substrate/10 μl of enzyme solution (premixed)
(§4) The assays for all the enzymes contained 60 mM HEPES-NaOH, pH 7.5, 3 mM MgCl2, 3 mM MnCl2, 3 μM Na orthovanadate, 1.2 mM DTT, 50 μg/ml PEG20000, 1 μM [γ-^33P]-ATP (about 5×10^5 cpm per well).
(§5) The reaction mixture was incubated at 30° C. for 80 minutes. The reaction was stopped with 50 μl of 2% (v/v) H3PO4. The plates were aspirated and washed twice with 200 μl of 0.9% (w/v) NaCl. The incorporation of ^33Pi was determined using a microtiter plates scintillation counter (Microbeta Trilux, Wallac).

In the next test the target is T2, AKT1 (Homo sapiens, UniProt P31749).
T2 construct: made in house; host or cells: Sf9 insect cells, baculovirus
T2 sequence (P31749 whole entry): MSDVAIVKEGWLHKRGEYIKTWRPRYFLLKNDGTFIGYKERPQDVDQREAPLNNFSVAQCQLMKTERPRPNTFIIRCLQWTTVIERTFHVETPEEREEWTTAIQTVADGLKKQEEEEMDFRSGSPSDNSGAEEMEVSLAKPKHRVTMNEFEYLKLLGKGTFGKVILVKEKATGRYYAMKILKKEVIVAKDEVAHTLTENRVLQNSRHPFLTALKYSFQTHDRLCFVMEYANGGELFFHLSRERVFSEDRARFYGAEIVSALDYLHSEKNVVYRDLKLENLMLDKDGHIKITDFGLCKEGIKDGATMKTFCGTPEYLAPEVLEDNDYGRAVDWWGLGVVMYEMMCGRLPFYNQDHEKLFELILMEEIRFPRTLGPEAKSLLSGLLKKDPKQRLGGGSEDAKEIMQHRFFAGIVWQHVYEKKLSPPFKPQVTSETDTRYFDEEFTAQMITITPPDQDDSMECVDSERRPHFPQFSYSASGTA
From the text: as §1, §2, §3, §4, §5

The next test has as its target T3, COT (Homo sapiens, UniProt P41279).
T3 construct: made in house; host or cells: Sf9 insect cells (baculovirus)
From the text: as §1, §2, §3, §4, §5

The target of the next test is T4, CDK4/CycD1 (Homo sapiens, UniProt P11802).
T4 construct: made in house; host or cells: Sf9 insect cells, baculovirus
T4 sequence (P11802 whole entry): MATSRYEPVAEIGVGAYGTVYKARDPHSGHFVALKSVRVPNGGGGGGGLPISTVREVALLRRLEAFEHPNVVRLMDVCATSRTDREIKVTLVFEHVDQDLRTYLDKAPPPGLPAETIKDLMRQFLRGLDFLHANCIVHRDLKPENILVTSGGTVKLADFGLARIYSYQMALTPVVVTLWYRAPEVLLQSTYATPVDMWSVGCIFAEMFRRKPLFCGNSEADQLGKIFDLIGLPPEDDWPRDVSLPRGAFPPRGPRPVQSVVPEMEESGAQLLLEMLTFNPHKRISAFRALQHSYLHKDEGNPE
T4 sequence (P24385 whole entry partner): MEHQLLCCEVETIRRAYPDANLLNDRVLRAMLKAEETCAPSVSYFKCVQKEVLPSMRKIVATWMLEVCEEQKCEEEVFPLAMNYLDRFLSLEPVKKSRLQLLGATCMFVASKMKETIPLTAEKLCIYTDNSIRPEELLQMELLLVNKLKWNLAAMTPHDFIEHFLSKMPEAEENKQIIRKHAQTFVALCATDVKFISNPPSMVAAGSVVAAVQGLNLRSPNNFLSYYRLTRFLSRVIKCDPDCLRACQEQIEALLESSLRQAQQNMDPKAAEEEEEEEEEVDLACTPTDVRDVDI
From the text: as §1, §2, §3, §4, §5

The target of another test is T5, MET (Homo sapiens, UniProt P08581).
T5 construct: made in house; host or cells: Sf9 insect cells, baculovirus
From the text: as §1, §2, §3, §4, §5

For a further test, the target named is T6, SRC (Homo sapiens, UniProt P12931).
T6 construct: made in house; host or cells: Sf9 insect cells, baculovirus
T6 sequence (P12931 whole entry): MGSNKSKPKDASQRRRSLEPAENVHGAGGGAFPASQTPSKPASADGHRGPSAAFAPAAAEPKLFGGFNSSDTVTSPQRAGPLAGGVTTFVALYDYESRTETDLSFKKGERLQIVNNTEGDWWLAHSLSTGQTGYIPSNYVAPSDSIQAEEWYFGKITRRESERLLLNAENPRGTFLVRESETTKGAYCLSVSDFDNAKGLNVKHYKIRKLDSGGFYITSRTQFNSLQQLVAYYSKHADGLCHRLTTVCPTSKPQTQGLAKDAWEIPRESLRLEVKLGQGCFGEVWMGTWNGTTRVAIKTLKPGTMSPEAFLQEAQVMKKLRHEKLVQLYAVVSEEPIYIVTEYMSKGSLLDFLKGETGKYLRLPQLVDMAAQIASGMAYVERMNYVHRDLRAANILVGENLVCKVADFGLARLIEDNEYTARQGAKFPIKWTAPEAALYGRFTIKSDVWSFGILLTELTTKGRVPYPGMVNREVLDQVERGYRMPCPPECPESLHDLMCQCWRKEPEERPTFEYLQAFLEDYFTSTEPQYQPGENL
From the text: as §1, §2, §3, §4, §5

The target of another test is T7, VEGF-R2 (Homo sapiens, UniProt P35968).
T7 construct: made in house; host or cells: Sf9 insect cells, baculovirus
T7 sequence (P35968 20-1356): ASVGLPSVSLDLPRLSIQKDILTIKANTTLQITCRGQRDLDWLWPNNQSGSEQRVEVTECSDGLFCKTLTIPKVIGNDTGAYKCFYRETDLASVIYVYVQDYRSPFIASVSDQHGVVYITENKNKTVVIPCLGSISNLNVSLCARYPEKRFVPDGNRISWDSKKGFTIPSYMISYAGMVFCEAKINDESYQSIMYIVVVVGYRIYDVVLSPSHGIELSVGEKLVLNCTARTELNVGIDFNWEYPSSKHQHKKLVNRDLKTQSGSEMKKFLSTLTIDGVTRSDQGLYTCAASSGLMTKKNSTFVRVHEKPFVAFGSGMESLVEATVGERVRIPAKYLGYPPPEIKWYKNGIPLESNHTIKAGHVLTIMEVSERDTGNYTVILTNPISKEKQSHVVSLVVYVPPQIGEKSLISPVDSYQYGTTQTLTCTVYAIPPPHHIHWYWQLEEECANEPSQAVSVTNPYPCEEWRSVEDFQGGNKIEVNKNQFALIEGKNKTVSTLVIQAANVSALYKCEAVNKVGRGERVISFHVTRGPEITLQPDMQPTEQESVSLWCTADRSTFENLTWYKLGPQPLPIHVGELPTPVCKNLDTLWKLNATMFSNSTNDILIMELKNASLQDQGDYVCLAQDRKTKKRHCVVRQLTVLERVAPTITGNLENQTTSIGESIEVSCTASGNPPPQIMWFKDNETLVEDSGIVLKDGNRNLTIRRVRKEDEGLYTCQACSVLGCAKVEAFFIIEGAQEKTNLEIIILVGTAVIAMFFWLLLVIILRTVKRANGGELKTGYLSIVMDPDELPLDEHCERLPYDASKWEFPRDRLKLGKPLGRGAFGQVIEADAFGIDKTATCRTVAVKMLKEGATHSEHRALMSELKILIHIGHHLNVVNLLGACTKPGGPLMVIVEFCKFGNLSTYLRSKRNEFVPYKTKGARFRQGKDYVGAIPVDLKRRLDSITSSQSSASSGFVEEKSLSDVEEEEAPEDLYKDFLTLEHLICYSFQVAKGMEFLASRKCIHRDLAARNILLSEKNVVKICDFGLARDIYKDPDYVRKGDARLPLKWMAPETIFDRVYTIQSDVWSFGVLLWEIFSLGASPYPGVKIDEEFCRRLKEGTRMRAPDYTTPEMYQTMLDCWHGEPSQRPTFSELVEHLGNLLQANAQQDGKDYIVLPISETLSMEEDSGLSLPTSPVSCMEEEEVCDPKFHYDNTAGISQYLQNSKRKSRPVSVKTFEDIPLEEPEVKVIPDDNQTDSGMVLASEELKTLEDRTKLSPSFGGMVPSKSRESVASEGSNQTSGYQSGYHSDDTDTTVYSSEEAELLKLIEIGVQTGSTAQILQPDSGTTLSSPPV
From the text: as §1, §2, §3, §4, §5

In the next test the target is T8, VEGF-R3 (Homo sapiens, UniProt P35916).
T8 construct: made in house; host or cells: Sf9 insect cells, baculovirus
T8 sequence (P35916 25-1363): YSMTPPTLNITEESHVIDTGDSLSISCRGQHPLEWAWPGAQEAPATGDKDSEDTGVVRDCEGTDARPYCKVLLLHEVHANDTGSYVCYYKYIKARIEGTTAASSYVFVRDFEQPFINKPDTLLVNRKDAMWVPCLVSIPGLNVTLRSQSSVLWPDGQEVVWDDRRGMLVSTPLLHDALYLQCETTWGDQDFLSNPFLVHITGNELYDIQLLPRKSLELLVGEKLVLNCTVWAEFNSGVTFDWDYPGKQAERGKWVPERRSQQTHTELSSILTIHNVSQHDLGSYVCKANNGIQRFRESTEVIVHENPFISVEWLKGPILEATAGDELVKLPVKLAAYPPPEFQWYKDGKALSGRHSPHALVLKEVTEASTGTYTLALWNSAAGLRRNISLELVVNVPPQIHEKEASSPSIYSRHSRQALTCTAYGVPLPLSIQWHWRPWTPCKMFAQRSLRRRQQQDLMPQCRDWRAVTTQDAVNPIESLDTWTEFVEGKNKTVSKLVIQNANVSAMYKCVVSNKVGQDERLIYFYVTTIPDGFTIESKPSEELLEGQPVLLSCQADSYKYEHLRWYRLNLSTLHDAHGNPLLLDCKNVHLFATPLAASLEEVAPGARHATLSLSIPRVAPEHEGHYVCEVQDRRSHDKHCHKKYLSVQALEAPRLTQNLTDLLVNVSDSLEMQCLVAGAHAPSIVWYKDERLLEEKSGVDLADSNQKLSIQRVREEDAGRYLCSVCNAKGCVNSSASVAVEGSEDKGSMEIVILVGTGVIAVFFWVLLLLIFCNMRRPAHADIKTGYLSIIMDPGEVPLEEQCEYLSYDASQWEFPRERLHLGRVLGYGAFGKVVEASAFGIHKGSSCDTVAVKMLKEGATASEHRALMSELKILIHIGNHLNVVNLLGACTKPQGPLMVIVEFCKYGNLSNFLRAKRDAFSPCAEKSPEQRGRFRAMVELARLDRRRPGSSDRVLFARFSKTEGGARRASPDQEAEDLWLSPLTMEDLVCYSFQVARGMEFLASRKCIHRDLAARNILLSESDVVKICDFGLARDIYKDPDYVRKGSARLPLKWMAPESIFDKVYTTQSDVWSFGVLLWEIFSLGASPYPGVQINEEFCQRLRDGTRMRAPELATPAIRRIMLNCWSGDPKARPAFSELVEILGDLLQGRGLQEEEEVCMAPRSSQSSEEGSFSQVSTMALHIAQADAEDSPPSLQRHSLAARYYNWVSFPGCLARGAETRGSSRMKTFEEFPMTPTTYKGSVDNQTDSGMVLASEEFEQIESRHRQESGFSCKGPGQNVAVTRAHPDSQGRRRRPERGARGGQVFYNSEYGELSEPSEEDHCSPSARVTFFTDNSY
From the text: as §1, §2, §3, §4, §5

For the next test, the target named is T9, SAK (Homo sapiens, UniProt O00444).
T9 construct: made in house; host or cells: Sf9 insect cells, baculovirus
T9 sequence (O00444 1-970): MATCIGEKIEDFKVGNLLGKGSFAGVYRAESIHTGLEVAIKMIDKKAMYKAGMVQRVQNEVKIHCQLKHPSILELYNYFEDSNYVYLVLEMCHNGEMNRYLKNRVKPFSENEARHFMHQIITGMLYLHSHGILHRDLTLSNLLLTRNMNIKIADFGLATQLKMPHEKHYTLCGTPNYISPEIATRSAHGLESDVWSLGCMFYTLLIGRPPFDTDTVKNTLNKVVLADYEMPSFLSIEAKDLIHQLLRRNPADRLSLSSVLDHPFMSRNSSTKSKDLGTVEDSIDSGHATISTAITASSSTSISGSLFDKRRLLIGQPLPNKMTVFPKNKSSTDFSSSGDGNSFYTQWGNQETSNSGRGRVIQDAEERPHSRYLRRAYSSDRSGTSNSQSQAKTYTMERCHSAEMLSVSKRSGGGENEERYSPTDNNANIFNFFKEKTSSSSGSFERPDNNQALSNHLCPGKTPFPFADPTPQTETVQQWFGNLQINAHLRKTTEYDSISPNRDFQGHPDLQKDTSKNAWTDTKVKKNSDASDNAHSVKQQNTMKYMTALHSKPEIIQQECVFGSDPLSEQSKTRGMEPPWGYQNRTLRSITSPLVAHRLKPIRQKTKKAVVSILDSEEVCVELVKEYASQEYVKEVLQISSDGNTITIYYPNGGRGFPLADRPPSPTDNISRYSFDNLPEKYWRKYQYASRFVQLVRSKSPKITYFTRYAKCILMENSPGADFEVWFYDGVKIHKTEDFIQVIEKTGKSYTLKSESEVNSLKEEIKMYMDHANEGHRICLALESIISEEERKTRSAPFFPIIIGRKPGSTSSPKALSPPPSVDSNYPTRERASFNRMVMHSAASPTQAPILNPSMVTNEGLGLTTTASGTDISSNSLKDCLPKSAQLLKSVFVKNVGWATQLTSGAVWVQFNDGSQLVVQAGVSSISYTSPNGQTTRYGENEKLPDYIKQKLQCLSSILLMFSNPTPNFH
From the text: as §1, §2, §3, §4, §5

The next test has as its target T10, INS-R (Homo sapiens, UniProt P06213).
T10 construct: made in house; host or cells: Sf9 insect cells, baculovirus
From the text: as §1, §2, §3, §4, §5

The mark [1] stands for this setting: 1 μM ATP, read-out: IC50 values [μM] PLK1.
Where [2] appears, read: 1 μM ATP, read-out: IC50 values [μM] AKT1.
[3] abbreviates: 1 μM ATP, autophosphorylation, read-out: IC50 values [μM] COT.
Setting [4] is: 1 μM ATP, read-out: IC50 values [μM] CDK4/CycD1.
[5] abbreviates: 1 μM ATP, read-out: IC50 values [μM] MET.
Where [6] appears, read: 1 μM ATP, read-out: IC50 values [μM] SRC.
Where [7] appears, read: 1 μM ATP, read-out: IC50 values [μM] VEGF-R2.
The mark [8] stands for this setting: 1 μM ATP, read-out: IC50 values [μM] VEGF-R3.
The mark [9] stands for this setting: 1 μM ATP, read-out: IC50 values [μM] SAK.
Where [10] appears, read: 1 μM ATP, read-out: IC50 values [μM] INS-R.

Read-outs that look alike come from different tables or passages of the source.

T3 sequence (P41279 whole entry): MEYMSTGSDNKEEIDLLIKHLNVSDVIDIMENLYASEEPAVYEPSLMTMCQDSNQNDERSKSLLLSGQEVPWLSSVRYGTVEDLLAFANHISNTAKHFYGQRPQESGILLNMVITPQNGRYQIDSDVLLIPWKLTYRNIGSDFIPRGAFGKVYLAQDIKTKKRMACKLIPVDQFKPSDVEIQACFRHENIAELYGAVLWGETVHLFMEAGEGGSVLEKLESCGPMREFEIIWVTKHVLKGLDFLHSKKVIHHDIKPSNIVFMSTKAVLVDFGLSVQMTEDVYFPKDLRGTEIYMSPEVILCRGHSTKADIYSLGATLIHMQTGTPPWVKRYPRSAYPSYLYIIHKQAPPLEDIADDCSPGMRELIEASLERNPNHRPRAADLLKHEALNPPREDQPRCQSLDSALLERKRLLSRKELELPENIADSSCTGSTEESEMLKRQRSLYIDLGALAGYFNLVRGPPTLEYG

Regarding `CC(C)n1c2c(c3c1-c1ccccc1C3=O)C(=O)CCC2` [Compound 4b, 5-Isopropyl-5,6,7,8-tetrahydroindeno[1,2-b]indole-9,10-dione], the IC50 against PLK1, on AKT1, against COT, against CDK4/CycD1, at MET and on SRC was more than 10 µM in each case. The IC50 against VEGF-R2, at VEGF-R3, on SAK and at INS-R was more than 10 µM in each case.

On to `O=c1ccc(=O)c2c1c1c(=O)c3ccccc3c1n2Cc1ccccc1` [Compound 6c, 5-Benzyl 5,6,9,10-tetrahydroindeno[1,2-b]indole-6,9,10-trione], for which the IC50 is more than 10 µM on PLK1 (setting [1]); more than 10 µM at AKT1 (setting [2]); 4.4 µM on COT (setting [3]); 7.6 µM on CDK4/CycD1 (setting [4]); more than 10 µM on MET (setting [5]); 0.8 µM at SRC (setting [6]). Besides, the IC50 came to 3.3 µM at VEGF-R2 (setting [7]), 7.5 µM at VEGF-R3 (setting [8]), 3.9 µM on SAK (setting [9]) and 6.5 µM at INS-R (setting [10]).

Take `CC(C)n1c2c(=O)ccc(=O)c2c2c(=O)c3ccccc3c21` [Compound 6b, 5-Isopropyl-5H-indeno[1,2-b]indole-6,9,10-trione]: the IC50 on PLK1 (setting [1]) is more than 10 µM; at AKT1 (setting [2]), 9.3 µM; on COT (setting [3]), 9.3 µM; at CDK4/CycD1 (setting [4]) it was more than 10 µM; on MET (setting [5]), more than 10 µM; on SRC (setting [6]), 1.6 µM. Also, the IC50 was determined as 1.9 µM at VEGF-R2 (setting [7]), 0.96 µM on VEGF-R3 (setting [8]), 1.7 µM on SAK (setting [9]) and 1.6 µM at INS-R (setting [10]).
